# Experimental data reported in a melting point compilation (Tetko et al.; mined from patent text by program, amines drawn as free bases though some values may be those of a salt).
row,Structure (SMILES),melting point [°C]
1,CN(c1cccc2cc(-c3nccs3)[nH]c12)S(=O)(=O)c1ccsc1C(=O)O,225
2,CCN(CC)CCCC(=O)c1ccc2c(c1)Cc1cc(C(=O)CCCN(CC)CC)ccc1O2,63 to 65
3,Cc1cccc(C)c1NC(=O)NC1(c2ccccc2)CCCC1,227 to 229
4,O=C(O)Cc1cc([N+](=O)[O-])ccc1C(=O)O,180 to 182
5,Cn1cc(I)c(=O)n(C)c1=O,226 to 228
6,COCc1c(Cl)nnc(Cl)c1OC,28 to 32
7,CC(C)CCn1cc(C(=O)O)c2ccc(Cl)cc21,53 to 55
8,COc1c(N2CCNC(C3CC3)C2)c(F)cc2c(=O)c(C(=O)O)cn([C@@H]3C[C@@H]3F)c12 (stereo partly specified),136 to 139
9,CN1CCCCCCC1=NC(=S)Nc1ccccc1,123 to 125
10,CCOC(=O)CCC(=O)Nc1cc(OC)c(OC)cc1C(=O)OCC,125
11,O=C(NC(Cc1ccccc1)C(=O)O)OCc1ccc(CCOc2ccccc2)cc1 (stereo unspecified),150 to 152
12,N=C(OCC1CC1)N1Cc2ccccc2-c2ccccc2C1,80 to 83
13,c1cc2c3c(c1)[C@@H]1CCC[C@@H]1N3CCNC2,57 to 59
14,O=C(O)C(Cl)(Cl)CCCCCCCCCCCCS(=O)c1ccccc1 (stereo unspecified),68
15,O=[N+]([O-])c1ccc(F)cc1CBr,38 to 41
16,CCOC(=O)CN1CCN(CCOc2cc3c(Nc4cccc(Br)c4)ncnc3cc2OC)CC1,155
17,N=C(Cc1ccccc1)NS(=O)(=O)C=Cc1ccc(Cl)c(Cl)c1,151 to 155
18,CC1CC2C3CCC4=CC(=O)C=CC4(C)C3=CCC2(C)C1(O)C(=O)CO (stereo unspecified),216 to 218
19,Cc1cc(-n2cc(-c3ccc(F)cc3)nc2C)cc2ccc(=O)[nH]c12,289 to 291
20,NC(N)=NC(=O)c1ccccc1Sc1ccccc1C(=O)N=C(N)N,> 220
21,CC(C)(C)Sc1c(CC(C)(C)C(=O)O)n(Cc2ccc(Cl)cc2)c2ccc(-c3ccccc3)cc12,245 to 246
22,CCCC(=O)Oc1ccc(C2=NNC(=O)CC2C)cc1 (stereo unspecified),112 to 113
23,O=C1NC(=O)C(Cc2ccc(OCc3nc4cccnc4n3-c3ccccc3)cc2)S1 (stereo unspecified),88 to 91
24,NNc1nc(Cl)nc2ccc(Cl)cc12,> 280
25,O=C(O)c1c[nH]c(Sc2ccc(Cl)c(Cl)c2)c1,156 to 159
26,CCOC(=O)c1ccc(NC(=O)CC(CNS(=O)(=O)c2ccc(C)cc2)c2ccccc2)cc1 (stereo unspecified),135 to 137

row,Structure (SMILES),melting point [°C]
1,COc1cc(OC)nc(Oc2ccc3ccccc3c2C=NNc2ccccc2)n1,148
2,NC(Cc1nc2cc(Cl)ccc2nc1CP(=O)(O)O)C(=O)O (stereo unspecified),181 to 192
3,Cc1cc(-n2cncn2)c2cccc(OCc3c(Cl)ccc(S(=O)(=O)N4CCC[C@H]4C(=O)NCC4CCN(CC(=O)OC(C)(C)C)CC4)c3Cl)c2n1,50
4,COc1cccnc1OCC(O)CO (stereo unspecified),62 to 65
5,COc1ccc(/C(C)=C/C(=O)O)cc1OC,73 to 74
6,CC1(C)CS(=O)CC(C)(C)c2[nH]c(-c3ccccc3)nc21,273 to 275
7,Cc1c(C)c(Br)c2c(c1C)C(=O)C(C)(C)O2,145 to 146
8,CON1C(C)(C)CC(OC(=O)c2ccccc2C(=O)OC2CC(C)(C)N(OC)C(C)(C)C2)CC1(C)C,124 to 126
9,CC(C)c1csc(/C=C/c2cccc(N)c2)n1,62 to 63
10,C[C@H](Cc1cc2c(c(C(N)=O)c1)N(CCCCOCc1ccccc1)CC2)NCCOc1ccccc1OCC(F)(F)F,101 to 102
11,COc1cc(NS(=O)(=O)c2ccc3c(c2)CCN3C=O)cc(OC)c1OC,200 to 201
12,NC(=O)N1CC(Oc2ccc(C(F)(F)F)cc2)C1,176 to 178
13,CCOC(=O)NC(=O)C(c1cccc(C)c1)c1ncc(C(F)(F)F)cc1Cl (stereo unspecified),146 to 147
14,Cc1cc(-c2nnc3c4ccccc4c(OCc4ccnn4C)nn23)no1,270
15,N#Cc1ccc(C(=O)N2CC2C#N)cc1 (stereo unspecified),107 to 110
16,OCc1cn(Cc2ccc(OCc3ccccc3)cc2)cc1-c1ccccc1,122 to 123
17,COc1cc(Nc2c(C#N)cnc3cc(OCCOCCN4CCNCC4)c(OC)cc23)c(Cl)cc1Cl,88 to 90
18,CN1C(=O)CN(NC(=O)CN)C(c2ccccc2)c2cc(Cl)ccc21 (stereo unspecified),173 to 175
19,CC(=O)Nc1cc(C(C)(C)C)nn1C(CCN1C(=O)c2ccccc2C1=O)=NOS(=O)(=O)c1ccc(C)cc1,195 to 201
20,COC=C(Br)c1c(C(F)(F)F)nc(C(F)F)c(C(=O)OC)c1CC1CC1,79 to 79.5
21,CC(CSC(=O)Nc1ccccc1)C(=O)N(CC(=O)O)C1CCCC1 (stereo unspecified),170 to 172
22,COC(=O)COc1ccc(S(=O)(=O)c2ccc(O)cc2)cc1,159 to 161
23,Cc1c(CCl)nc2c(NC(=O)C(C)(C)C)cccn12,168
24,COc1ccc(Oc2ccc(/C=C/C(=O)O)cc2)cc1,165 to 167
25,Cc1cc(-n2ccnc2)c2cccc(OCc3c(Cl)ccc(S(=O)(=O)N4CCOCC4)c3Cl)c2n1,148
26,CCOC(=O)c1ccc(N)c(CNC(C)(C)C)c1,77 to 79

row,Structure (SMILES),melting point [°C]
1,COP(=O)(Cc1nc(C)c(C)o1)OC,54 to 57
2,COc1ccc(C(=O)c2cccc3[nH]ccc23)cc1,148 to 152
3,Fc1ccc(-c2cc(C(C(F)(F)F)C(F)(F)F)[nH]c2-c2ccc(F)cc2)cc1,123 to 124
4,CNC(=O)N1N=C(c2ccc(NC(C)=O)cc2)c2cc3c(cc2CC1C)OCO3 (stereo unspecified),150 to 152
5,COc1nncc(-c2ccccc2)n1,73 to 74
6,COc1cc2c(cc1OC)CN(c1nc(N)nc3cc(OC)c(OC)cc13)CC2,245
7,CC(C)(C)OC(=O)NC1CCN(C(=O)OCCC2(C(=O)NCC(F)(F)F)c3ccccc3-c3ccccc32)CC1,84 to 86
8,C#Cc1cccc(NC(C)=O)c1,94 to 96
9,O=C(OCc1ccccc1)[C@H](CCCCO)N1C(=O)c2ccccc2C1=O,106 to 108
10,CC(C)(C)C#Cc1cc([N+](=O)[O-])ccc1C(=O)O,170 to 173
11,CC1C(=O)CCC2(C)C1CCC1C3CCC(=Cc4ccccc4Cl)C3(C)CCC12 (stereo unspecified),205 to 208
12,O=C(Nc1ccc(-n2nc(C(F)(F)F)cc2OC(F)F)cc1)c1ccncc1,154 to 155
13,CN(C)c1ccc(/C=C/c2nc3cc(Cl)ccc3s2)cc1,182 to 184
14,CC1=C(C)C(O)N(c2nc3ccc(OC(F)(F)F)cc3s2)C1=O (stereo unspecified),228 to 231
15,Cc1c(S(=O)(=O)c2ccc(=O)[nH]n2)sc2ccc(Cl)cc12,258 to 259
16,CCCCn1ccc(C=CC(=O)O)cc1=O,131 to 134
17,Cc1[nH]c(Cc2ccccc2)nc1C=O,171 to 173
18,CC(C)CC(=O)Nc1cccc(-c2ccnc3c(-c4cccc(-c5ccccc5)c4)cnn23)c1,182 to 185
19,Cc1ccccc1C=C1CCc2c1oc1ccc(C#N)cc1c2=O,260 to 262
20,O=C(O)c1cccnc1Oc1cccc(Cl)c1,161 to 164
21,COc1ccc(S(=O)(=O)N2C(=O)C(O[Si](C)(C)C)(c3ccccc3F)c3cc(Cl)ccc32)c(OC)c1 (stereo unspecified),184 to 186
22,CCOC(=O)N(c1ccccc1)c1cc(Cl)ccc1-n1nc(C(=O)O)nc1CCl,115 to 117
23,C=Cc1cccc2c(Nc3ccc(O)cc3C)c(C(=O)CCC)cnc12,150 to 152
24,Cc1c(NC(=O)c2ccc(OCC3CC3)cc2)ccc2cc(CN3CCC(C)(O)CC3)n(C)c12,152 to 155
25,Cn1cc(C(=O)C(Cl)Cl)c(=O)c(-c2cccc(C(F)(F)F)c2)c1,184 to 186
26,CC(OC(=O)C1CCNCC1)C(c1ccccc1)(c1ccccc1)c1ccccc1 (stereo unspecified),154 to 155

row,Structure (SMILES),melting point [°C]
1,C[N+]1([O-])CCC(=C(c2ccsc2)c2ccsc2)CC1 (stereo unspecified),92 to 96
2,CCCCCc1cc2c(nc(O)n2CCCNC(C)=O)c(N)n1,189 to 191
3,CCCCCCCN(Cc1ccc(C(C)(C)C)cc1)C(Nc1ccc(F)cc1F)=C1C(=O)COC1=O,89 to 92
4,Clc1ccc(C(c2ccc(Cl)cc2)N2CCN(C(c3ccccc3)c3c[nH]c4cccc(Cl)c34)CC2)cc1 (stereo unspecified),100 to 105
5,CCOc1cc([N+](=O)[O-])c(C)c(C)c1[N+](=O)[O-],64 to 66
6,COC(=O)c1ccc(C(=O)NS(=O)(=O)c2ccc(C(=O)NCCCc3ccccc3)cc2)cn1,240 to 242
7,CCOC(=O)c1c(C)nc(Cl)c([N+](=O)[O-])c1NC(C)CC (stereo unspecified),33 to 35
8,CC(C)(C)OCCCNC(=O)c1n[nH]cc1NC(=O)c1ccccn1,193 to 194
9,N#Cc1ccc2[nH]c3c(ccc4cc[nH]c43)c2c1,> 250
10,CC(=O)Nc1cccc(C(=O)CN2C=CSC2NC(C)=O)c1 (stereo unspecified),224 to 226
11,CN1CCC(Nc2ccc([N+](=O)[O-])cc2)CC1,153 to 155
12,CC(C)(N)COc1ccc(O)c(C(N)=O)c1,115 to 117
13,COc1ccc(CC2CCN(CCS(=O)c3ccc4[nH]c(=O)oc4c3)CC2)cc1 (stereo unspecified),169 to 170
14,Cc1nc2cccc3n(CCCNS(=O)(=O)C(F)(F)F)c(=O)c1n23,168 to 169
15,O=C(O)C(Cc1ccccc1)Oc1ccc(-c2ccc(-c3c(Br)oc4ccccc34)cc2)cc1 (stereo unspecified),148 to 149
16,NS(=O)(=O)c1ccc(-c2ccccc2-c2ccc(Cl)cc2)cc1,206 to 207
17,CC(=O)OC1CCCc2cnc3cc(OCc4ccccc4)ccc3c21 (stereo unspecified),70 to 72
18,C=CCn1cnc2c1c(=O)n(CCCCC(C)O)c(=O)n2C (stereo unspecified),71
19,CCCCOCCOc1ccc(-c2ccc3c(c2)C=C(C(=O)Nc2ccc(CP4(=O)OCCCO4)cc2)CCS3(=O)=O)cc1,222 to 223
20,CCn1c(NC)nc(=O)c2ccccc21,262 to 264
21,CC(C)CC(=O)Nc1c(C(N)=O)nnn1Cc1ccccc1,181 to 182
22,O=c1[nH]nc(-c2ccc(N=Cc3ccc(O)cc3)cc2)c(O)c1O,233
23,CCN(CC)CC1CCCCN1CCNC(=O)N1c2ccc(Br)cc2C(=O)Nc2cccnc21 (stereo unspecified),117 to 119
